Data on 8 compounds can be found in US20110033393A1, “Hydrazone Compounds and Their Use” (priority 2009, published 2011).

The target in this experiment is T1, human TRPM5 ion channel (Homo sapiens, UniProt Q9NZQ8).
T1 sequence (Q9NZQ8 1-1165): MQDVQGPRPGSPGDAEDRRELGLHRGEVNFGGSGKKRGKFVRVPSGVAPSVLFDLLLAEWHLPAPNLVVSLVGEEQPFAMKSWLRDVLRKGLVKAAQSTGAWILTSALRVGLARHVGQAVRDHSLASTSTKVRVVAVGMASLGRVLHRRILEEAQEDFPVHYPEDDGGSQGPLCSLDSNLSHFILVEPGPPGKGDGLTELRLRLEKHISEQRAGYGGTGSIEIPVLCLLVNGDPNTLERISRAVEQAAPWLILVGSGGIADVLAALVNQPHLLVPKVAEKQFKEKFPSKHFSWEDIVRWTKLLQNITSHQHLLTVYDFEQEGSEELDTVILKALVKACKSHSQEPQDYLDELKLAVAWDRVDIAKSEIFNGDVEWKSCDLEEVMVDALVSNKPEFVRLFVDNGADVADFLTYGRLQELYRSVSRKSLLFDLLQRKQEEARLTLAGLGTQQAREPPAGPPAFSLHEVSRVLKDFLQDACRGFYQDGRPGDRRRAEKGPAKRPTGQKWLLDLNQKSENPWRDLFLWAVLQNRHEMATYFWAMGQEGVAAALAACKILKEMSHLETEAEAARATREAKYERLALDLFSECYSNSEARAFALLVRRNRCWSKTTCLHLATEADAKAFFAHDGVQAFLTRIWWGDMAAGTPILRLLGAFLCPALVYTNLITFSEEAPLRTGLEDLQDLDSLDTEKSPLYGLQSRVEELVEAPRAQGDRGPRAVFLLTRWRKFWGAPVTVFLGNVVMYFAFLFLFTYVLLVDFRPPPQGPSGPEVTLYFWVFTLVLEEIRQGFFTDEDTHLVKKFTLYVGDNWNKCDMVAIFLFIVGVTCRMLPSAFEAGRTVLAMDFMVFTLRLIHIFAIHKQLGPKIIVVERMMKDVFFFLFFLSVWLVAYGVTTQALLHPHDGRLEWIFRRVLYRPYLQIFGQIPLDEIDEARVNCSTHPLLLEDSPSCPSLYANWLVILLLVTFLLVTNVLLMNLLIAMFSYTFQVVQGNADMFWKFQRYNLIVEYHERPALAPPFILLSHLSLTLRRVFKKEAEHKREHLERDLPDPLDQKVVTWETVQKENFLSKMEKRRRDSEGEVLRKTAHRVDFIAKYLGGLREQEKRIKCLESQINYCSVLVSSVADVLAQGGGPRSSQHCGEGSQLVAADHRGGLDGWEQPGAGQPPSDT
Put plainly: FLIPR-based assay for membrane potential and calcium mobilization (TRPM5 inhibiting activity). The class given is cell-based. As to conditions: live cells, 30° C., read-out: hTrpM5 IC50. On the procedure:
The activity of compounds of the present invention on human TRPM5 ion channel was measured using the FLIPR-based (fluorescent imaging plate reader) assay for membrane potential and calcium mobilization described in U.S. Patent Application Publication No. 2008/0249189 A1 in live cells, wherein the assay is performed at 30° C. Determinations of affinity and efficacy were derived from measurements of TRPM5 activity over a range of compound concentrations. The concentration range was achieved by 10 serial dilutions (either 2-fold or 3-fold decrements) from a maximum concentration of no greater that 100 μM. Curver fitting was performed on the resulting data to yield concentration-effect functions, from which the half-maximal inhibitory concentration (IC50) was derived for all the tested compounds. The IC50 values were considered to be accurate reflections of affinity between the compounds and TRPM5.
Representative compounds of the present invention have been tested in the FLIPR assay for TRPM5 inhibiting activity, which is described in detail above.
Consider `Cc1cc(/C=N/NC(=O)CCc2cn(C)c3ccccc23)cc2cccnc12` [Example 23, 3-(1-Methyl-1H-indol-3-yl)-N′-((8-methylquinolin-6-yl)methylene)propanehydrazide], for which the 50% inhibitory concentration (IC50) (commonly the point on the concentration scale where inhibition reaches its midpoint) worked out at 160 nM.
As to `COc1ccc(/C=N/NC(=O)CCn2cc(C)c3c(C)cccc32)cc1OC` [Example 7, N′-(3,4-Dimethoxybenzylidene)-3-(3,4-dimethyl-1H-indol-1-yl)propanehydrazide], the IC50 came to 1.8 nM.
For `COc1cc(F)c(/C=N/NC(=O)CCn2cc(C)c3c(C)cccc32)cc1OC` [Example 8, 3-(3,4-Dimethyl-1H-indol-1-yl)-N′-(2-fluoro-4,5-dimethoxybenzylidene)propanehydrazide] the value was 3 nM; for `COc1cc(/C=N/NC(=O)CCn2cc(C)c3c(C)cccc32)ccc1OCc1ccncc1` [Example 18, 3-(3,4-Dimethyl-1H-indol-1-yl)-N′-(3-methoxy-4-(pyridin-4-ylmethoxy)benzylidene)propanehydrazide], 46 nM.
As for `Cc1cn(CCC(=O)N/N=C/c2ccc3c(c2)OCCCO3)c2ccccc12` [Example 58, N′-((3,4-dihydro-2H-benzo[b][1,4]di-oxepin-7-yl)methylene)-3-(3-methyl-1H-indol-1-yl)propanehydrazide], the figure is 180 nM; as for `COc1ccc(/C=N/NC(=O)CSc2cccc(Cl)c2)cc1OC` [Example 66, 2-(3-chlorophenylthio)-N′-(3,4-dimethoxybenzylidene)acetohydrazide], 40 nM; as for `COc1ccc(/C=N/NC(=O)[C@@H]2C[C@H]2c2cccc(C(F)(F)F)c2)cc1OC` (relative stereo) [Example 6, trans-N′-(3,4-Dimethoxybenzylidene)-2-(3-(trifluoromethyl)phenyl)cyclopropanecarbohydrazide], 37 nM.
Consider `COc1ccc(/C=N/NC(=O)CCc2cn(C)c3c(C)cccc23)cc1OC` [Example 48, N′-(3,4-Dimethoxybenzylidene)-3-(1,7-dimethyl-1H-indol-3-yl)propanehydrazide], for which the IC50 amounted to 9 nM.
